Assay results from patent US4329349A, “6-C1-4 Alkyl-7-phenyl or substituted phenyl-1,6-naphthyridine-5(6H)-ones” (Sandoz, Inc., priority 1980, dated 1982).
Read-outs that look alike come from different tables or passages of the source.

What was measured:
Assay type in all cases: in vivo
[1] = test system: male Royal Hart mice (rotarod time); assay: Test A (Rotarod Test), muscle relaxant; settings: for percent change in rotarod time: 200 mg./kg. p.o., vs control; for ED50: Mus musculus, tested 30 and 60 minutes after administration, read-out: ED50 (dose which decreases the rotarod time by 50%)
Description: (§1) The compounds of Formula I and the pharmaceutically acceptable acid addition salts thereof are useful for the treatment of inflammation in animals (e.g., mammals) as indicated by Test E and, with the exception of those wherein R2 is 4-NR5 R6 and R3 and R4 are hydrogen, as muscle relaxants in animals (e.g., mammals) as indicated by Tests A, B, C and D. The preferred compounds of Formula I and pharmaceutically acceptable acid addition salts set forth above are those that are preferred for muscle relaxation.
Test A (Rotarod Test): A modification of the rotarod method of Dunham et al., J. Am. Pharm. Assoc. 46, 208 (1957), is used. Groups of 5 male Royal Hart mice weighing 20-25 g. are trained to ride a rod revolving at 15 r.p.m. covered with corrugated paper for 60-90 seconds. Ability of the mice to remain on the rod is tested again at 30 minutes and 60 minutes after intraperitoneal or oral administration of the drug (the compound of Formula I in free base or pharmaceutically acceptable acid addition salt form) at a dose of 20-400 mg./kg. body weight or saline. Rotarod times for control and treated groups are compared to determine the percent change. The ED50 is the dose of the drug which decreases the rotarod time by 50% or is calculated by interpolation.

[2] = test system: carrageenan-induced edema; assay: Test E (Acute Carrageenan-Induced Edema), anti-inflammatory; settings: Rattus norvegicus, po, 3 h; p.o., rats, one hour prior to carrageenan; edema measured three hours after carrageenan
Description: as §1
Test E (Acute Carrageenan-Induced Edema): Rats are orally dosed (10-200 mg./kg. body weight) with the test drug (compound of Formula I in free base or pharmaceutically acceptable acid addition salt form) one hour prior to administration of carrageenan; edema is measured three hours subsequent to the carrageenan administration. See Winter, Proc. Soc. Exp. Biol. 111, 544 (1962).

linguomandibular reflex = assay: Test D (Linguomandibular Reflex (LMR)), muscle relaxant; settings: Felis catus, iv, cats, alpha chloralose anesthesia; read-out: ED50 (dose that reduces the response by 50%)
Description: as §1
Test D (Linguomandibular Reflex (LMR)): The linguomandibular reflex is a polysynaptic reflex involving interneurons within the brain stem. Inhibition of the linguomandibular reflex has been correlated with central muscle relaxant activity. See Bhargava et al., Brit. J. Pharmacol. 25, 74-80 (1965).
Male cats weighing 2.0-3.0 kg. are utilized to study the effect of a drug on the linguomandibular reflex. […]
The head of the cat is rigidly fixed in a Kopf stereotaxic u-frame assembly allowing the lower jaw (mandible) to move freely. The movement of the lower jaw is recorded through a system of surgical thread, pulleys and a ft. […]
After consistent linguomandibular responses are obtained, the test drug (compound of Formula I in free base or pharmaceutically acceptable acid addition salt form) is administered intravenously at a dose of 2-50 mg./kg. body weight and its effect is recorded. […]

[3] = test system: mono (patellar)--and poly (flexor)--synaptic gross spinal reflexes; assay: Test B (Gross Spinal Reflex), muscle relaxant; settings: Felis catus, iv, cats, alpha chloralose anesthesia, progressively accumulating doses; read-out: ED50 (dose that reduces the response by 50%)
Description: as §1
Test B (Gross Spinal Reflex): Male cats weighing 2.5-3.0 kg. are utilized to study the effects of drugs on the mono (patellar)--and poly (flexor)--synaptic gross spinal reflexes. A Grass Model 7 polygraph with two ft. 03 force displacement transducers and two low level D.C. pre-amplifiers is utilized to measure the flexor and patellar responses.
Anesthesia is induced with ether, followed by an i.v. injection of alpha chloralose dissolved in warm distilled water at a dose of 70 mg./kg. body weight. […]
A drill bit pin is inserted just behind the lateral epicondyle of the left femur. […] Contraction of the left leg is measured via a force displacement transducer. […]
A series of control responses is recorded prior to administration of the drug (compound of Formula I in free base or pharmaceutically acceptable acid addition salt form). […]

| Compound | percent change in rotarod time [1] [%] | ED50 ([1]; ip) [mg/kg] | ED50 [2] [mg/kg] | ED50 (linguomandibular reflex) [mg/kg] | ED50 ([1]; po) [mg/kg] | ED50 [3] [mg/kg] |
| --- | --- | --- | --- | --- | --- | --- |
| Cn1c(-c2ccc(Cl)cc2)cc2ncccc2c1=O [Example 11, 7-(4'-Chlorophenyl)-6-methyl-1,6-naphthyridine-5-(6H)-one] | 32 | 134 | – | – | – | – |
| CN(C)c1cccc(-c2cc3ncccc3c(=O)n2C)c1 [Example 8, 7-(3'-Dimethylaminophenyl)-6-methyl-1,6-naphthyridine-5(6H)-one] | 47.3 | 141 | – | – | – | – |
| Cn1c(-c2ccccc2Cl)cc2ncccc2c1=O [Example 4, 7-(2'-Chlorophenyl)-6-methyl-1,6-naphthyridine-5(6H)-one] | – | 49.3 | 29 | 4.6 | 39.1 | 1.6 |
| Cc1ccccc1-c1cc2ncccc2c(=O)n1C [Example 6, 6-Methyl-7-(2'-methylphenyl)-1,6-naphthyridine-5-(6H)-one] | – | 36.8 | – | – | 43.5 | – |
